Measurements taken from patent US8518952B2, “6 substituted 2-heterocyclylamino pyrazine compounds as CHK-1 inhibitors” (Pfizer Inc., priority 2008, dated 2013).
Read-outs that look alike come from different tables or passages of the source.

Key:
[1] = biological target: T1, CHK1 (kinase domain) (Homo sapiens, UniProt O14757); experiment: CHK1 Ki determination, spectrophotometric coupled (pyruvate kinase/lactate dehydrogenase) assay; assay type: biochemical; details: CHK-1 kinase domain; for Ki: 150 uM ATP, 125 uM Syntide 2; for percent inhibition (where no Ki data is available): inhibitor concentration not given
T1 construct: a solution containing 1 nM of CHK1 (kinase domain)
T1 sequence (O14757 9-265 limits assumed): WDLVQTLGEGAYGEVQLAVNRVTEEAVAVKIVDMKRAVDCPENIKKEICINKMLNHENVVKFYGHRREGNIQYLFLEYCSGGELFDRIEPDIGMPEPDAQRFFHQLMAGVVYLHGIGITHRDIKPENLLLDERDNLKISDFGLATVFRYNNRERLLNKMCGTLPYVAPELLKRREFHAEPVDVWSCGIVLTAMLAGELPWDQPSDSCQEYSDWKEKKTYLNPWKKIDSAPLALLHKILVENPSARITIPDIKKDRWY
Procedure: After 15 min pre-incubation, the enzymatic reaction was initiated by the simultaneous addition of Syntide 2 peptide (125 uM, final concentration) and ATP (150 uM, final concentration). The kinase-catalyzed production of ADP from ATP that accompanied phosphoryl transfer to the substrate Syntide 2 was coupled to the oxidation of NADH through the activities of pyruvate kinase and lactate dehydrogenase. NADH conversion to NAD^+ was monitored by the decrease in absorbance at 340 nm (ε=6.22 cm^−1 mM^−1) using a microplate reader from Molecular Devices Spectormax Plus (Sunnyvale, Calif.) or BMG LABTECH Inc (Offenburg, Germany).
The inhibition of CHK1 was analyzed by fitting the data to the following equation to determine Kiapp:
[formula] where [E]o and [I]o are the active enzyme and inhibitor concentration, respectively; Ki is the inhibition binding constant and Km the Michaelis-Menten constant for ATP; Vi and Vo are the rates of substrate oxidation in the presence of and in the absence of inhibitor, respectively. EC50 Determination (Cellular Assay)
(§1) Under the “Ki” column, data entries in the format of “%” are percent inhibition data where no Ki data is available. Data entry under the “EC50” column with an * are data obtained using Mia Paca-2 cells rather than HeLa cells. Data is not available where noted as n/a.

[2] = test system: HeLa cells; experiment: Histone H3 (Ser10) phosphorylation ELISA, abrogation of camptothecin-induced G2 arrest (CHK-1 cellular assay); assay type: cell-based
Procedure: The Histone H3 phosphorylation ELISA assay detects cells entering mitosis and represents the primary in vitro cell-based assay used to measure the cellular potency of compounds in abrogating the G2 check point induced by DNA damage in HeLa cells or MiaPaCa cells. The candidate substances were assayed for potency in their ability to inhibit camptothecin-induced G2 arrest, as measured by an increase in Histone H3 phosphorylation on Ser10, a marker of entry into mitosis.
Tissue culture plates were seeded with HeLa cells or MiaPaCa Cells and allowed to attach overnight. The cells were then treated with camptothecin to induce DNA damage for 8 hrs. Candidate substances or diluent were then added in the presence of nocodozole for 16 hours. […] The fresh whole cell lysates were then thawed and added to the ELISA plate with shaking for 3 hours. Between all subsequent steps plates were washed 4 times with PBST. Biotinylated phospho Histone H3 (ser10) detection antibody was added for 1 hour, followed by addition of horseradish peroxidase-linked streptavidin secondary antibody for 1 hour. Color development of the antibody was performed with addition of TMB substrate and incubation for 2 minutes on a plate shaker. […] EC50 values were calculated by sigmoid curve fitting using a four-parameter analysis.
as §1

[3] = Homo sapiens, HeLa, HeLa cells, camptothecin 8 hrs, then compound with nocodozole 16 hours, read-out: EC50
[4] = HeLa cells, camptothecin 8 hrs, then compound with nocodozole 16 hours, read-out: EC50

Structure (SMILES) | Ki [1] | EC50 [2, 3] | percent inhibition (where no Ki data is available) [1] | EC50 [2, 4] | EC50 ([2]; Homo sapiens, HeLa)
c1cn2c(-c3cncc(N[C@@H]4CCCNC4)n3)cnc2s1 [Example 41, 6-Imidazo[2,1-b][1,3]thiazol-5-yl-N-[(3R)-piperidin-3-yl]pyrazin-2-amine] | 7 nM | 25.8 nM |  |  | 
FC1(F)CCNC[C@H]1Nc1cncc(-c2cnc3ccccn23)n1 [Example 248, N-[(3R)-4,4-difluoropiperidin-3-yl]-6-(imidazo[1,2-a]pyridin-3-yl)pyrazin-2-amine] | 45.3 nM | ≥ 10000 nM |  |  | 
c1cnc2c(-c3cncc(N[C@@H]4CCNC4)n3)cnn2c1 [Example 121, 6-pyrazolo[1,5-a]pyrimidin-3-yl-N-[(3R)-pyrrolidin-3-yl]pyrazin-2-amine] |  | ≥ 10000 nM | 16.5%^ |  | 
Clc1ccc2c(-c3cncc(N[C@@H]4CCNC4)n3)cnn2c1 [Example 113, 6-(6-chloropyrazolo[1,5-a]pyridin-3-yl)-N-[(3R)-pyrrolidin-3-yl]pyrazin-2-amine] |  | 103 nM | 95.5%^ |  | 
Cc1cn2c(-c3cncc(N[C@@H]4CCCN[C@H]4C)n3)cnc2s1 [Example 176, 6-(2-methylimidazo[2,1-b][1,3]thiazol-5-yl)-N-[(2S,3R)-2-methylpiperidin-3-yl]pyrazin-2-amine] | 9.54 nM |  |  | 11.2 nM | 
CCC(COC)Oc1ccn2c(-c3cncc(N[C@@H]4CCCNC4)n3)cnc2c1 (stereo partly drawn) [Example 122, 6-{7-[1-(methoxymethyl)propoxy]imidazo[1,2-a]pyridin-3-yl}-N-[(3R)-piperidin-3-yl]pyrazin-2-amine] | 11 nM | 1060 nM |  |  | 
c1cn2c(-c3cncc(N[C@@H]4C[C@@H]5CN[C@H]4C5)n3)cnc2cn1 [Example 147, (1S,4R,6R)-N-(6-imidazo[1,2-a]pyrazin-3-ylpyrazin-2-yl)-2-azabicyclo[2.2.1]heptan-6-amine] | 12.9 nM | 295 nM |  |  | 
OC[C@@H]1CNC[C@@H]1Nc1cncc(-c2cnn3cc(Cl)ccc23)n1 [Example 201, [(3R,4R)-4-{[6-(6-chloropyrazolo[1,5-a]pyridin-3-yl)pyrazin-2-yl]amino}pyrrolidin-3-yl]methanol] | 4.88 nM | 48.9 nM |  |  | 
Cc1ccn2c(-c3cncc(N[C@@H]4CCNC4)n3)cnc2c1 [Example 51, 6-(7-Methylimidazo[1,2-a]pyridin-3-yl)-N-[(3R)-pyrrolidin-3-yl]pyrazin-2-amine] | 9.6 nM | 95.6 nM |  |  | 
C[C@@H]1CNC[C@@H]1Nc1cncc(-c2cnn3cc(Cl)ccc23)n1 [Example 116, 6-(6-chloropyrazolo[1,5-a]pyridin-3-yl)-N-[(3R,4R)-4-methylpyrrolidin-3-yl]pyrazin-2-amine] | 1.97 nM | 20.3 nM |  |  | 
FC(F)(F)c1ccc2ncc(-c3cncc(N[C@@H]4CCCNC4)n3)n2c1 [Example 39, N-[(3R)-piperidin-3-yl]-6-[6-(trifluoromethyl)imidazo[1,2-a]pyridin-3-yl]pyrazin-2-amine] | 17 nM | 677 nM |  |  | 
C[C@@H]1CNC[C@@H]1Nc1cncc(-c2cnc3cc(C(N)=O)ccn23)n1 [Example 191, 3-(6-{[(3R,4R)-4-methylpyrrolidin-3-yl]amino}pyrazin-2-yl)imidazo[1,2-a]pyridine-7-carboxamide] | 4.7 nM | 5070 nM |  |  | 
FC(F)(F)CO[C@@H]1CNC[C@@H]1Nc1cncc(-c2cnc3ccccn23)n1 [Example 195, 6-(imidazo[1,2-a]pyridin-3-yl)-N-[(3S,4R)-4-(2,2,2-trifluoroethoxy)pyrrolidin-3-yl]pyrazin-2-amine] | 73.4 nM | 78.5 nM |  |  | 
CC(C)c1cn2c(-c3cncc(N[C@@H]4CCCN[C@H]4C)n3)cnc2s1 [Example 112, 6-(2-isopropylimidazo[2,1-b][1,3]thiazol-5-yl)-N-[(2S,3R)-2-methylpiperidin-3-yl]pyrazin-2-amine] | 12.7 nM | 1110 nM |  |  | 
FC[C@@H]1C[C@@H](Nc2cncc(-c3cnc4ccccn34)n2)CN1 [Example 67, N-[(3R,5S)-5-(fluoromethyl)pyrrolidin-3-yl]-6-imidazo[1,2-a]pyridin-3-ylpyrazin-2-amine] | 80 nM | 507 nM |  |  | 
CCc1cn2c(-c3cncc(N[C@@H]4CCCN[C@@H]4C)n3)cnc2s1 [Example 108, 6-(2-ethylimidazo[2,1-b][1,3]thiazol-5-yl)-N-[(2R,3R)-2-methylpiperidin-3-yl]pyrazin-2-amine] | 10.2 nM |  |  | 47 nM | 
CC1(COc2ccc3c(c2)ncn3-c2cncc(N[C@@H]3CCCNC3)n2)COC1 [Example 47, 6-{5-[(3-Methyloxetan-3-yl)methoxy]-1H-benzimidazol1-yl}-N-[(3R)-piperidin-3-yl]pyrazin-2-amine] | 24.6 nM | 52.2 nM |  |  | 
c1ccn2ncc(-c3cncc(N[C@@H]4CCNC4)n3)c2c1 [Example 115, 6-pyrazolo[1,5-a]pyridin-3-yl-N-[(3R)-pyrrolidin-3-yl]pyrazin-2-amine] | 3.3 nM | 169 nM |  |  | 
CC(C)Oc1ccc2c(c1)ncn2-c1cncc(N[C@@H]2CCNC2)n1 [Example 222, 6-[5-(propan-2-yloxy)-1H-benzimidazol-1-yl]-N-[(3R)-pyrrolidin-3-yl]pyrazin-2-amine] |  | ≥ 10000 nM | 42.5%^ |  | 
c1ccn2c(-c3cncc(N[C@@H]4CCCNC4)n3)cnc2c1 [Example 2, 6-Imidazo[1,2-a]pyridin-3-yl-N-[(3R)-piperidin-3-yl]pyrazin-2-amine] | 3.24 nM |  |  |  | 34.3 nM
C[C@@H]1NCCC[C@H]1Nc1cncc(-c2cnc3cnccn23)n1 [Example 167, 6-(imidazo[1,2-a]pyrazin-3-yl)-N-[(2S,3R)-2-methylpiperidin-3-yl]pyrazin-2-amine] | 101 nM | ≥ 10000 nM |  |  | 
F[C@H]1CCNC[C@@H]1Nc1cncc(-c2cnc3ccccn23)n1 [Example 28, N-[(3S,4S)-4-fluoropiperidin-3-yl]-6-imidazo[1,2-a]pyridin-3-ylpyrazin-2-amine] | 4.77 nM | 205 nM |  |  | 
F[C@H]1CNC[C@@H]1Nc1cncc(-c2cnc3ccccn23)n1 (relative stereo) [Example 46, Trans N-[4-fluoropyrrolidin-3-yl]-6-imidazo[1,2-a]pyridin-3-ylpyrazin-2-amine] |  | 7970 nM | 29.7%^ |  | 
CC1(Nc2cncc(-c3cnc4ccccn34)n2)CCNC1 (stereo not shown) [Example 99, 6-imidazo[1,2-a]pyridin-3-yl-N-(3-methylpyrrolidin-3-yl)pyrazin-2-amine] | 28.4 nM | ≥ 10000 nM |  |  | 
FC(F)(F)c1ccn2c(-c3cncc(N[C@@H]4CCCNC4)n3)cnc2c1 [Example 40, N-[(3R)-piperidin-3-yl]-6-[7-(trifluoromethyl)imidazo[1,2-a]pyridin-3-yl]pyrazin-2-amine] | 4.43 nM | 104 nM |  |  | 
CCOc1ccc2ncn(-c3cncc(N[C@@H]4CCNC4)n3)c2c1 [Example 219, 6-(6-ethoxy-1H-benzimidazol-1-yl)-N-[(3R)-pyrrolidin-3-yl]pyrazin-2-amine] |  | 979 nM | 48.4%^ |  | 
C[C@H]1NCCC[C@@H]1Nc1cncc(-c2cnc3ccccn23)n1 [Example 132, 6-imidazo[1,2-a]pyridin-3-yl-N-[(2R,3S)-2-methylpiperidin-3-yl]pyrazin-2-amine] |  | ≥ 10000 nM | 18.3%^ |  | 
CC(C)Oc1ccc2ncn(-c3cncc(N[C@@H]4CCCNC4)n3)c2c1 [Example 150, 6-(6-isopropoxy-1H-benzimidazol-1-yl)-N-[(3R)-piperidin-3-yl]pyrazin-2-amine] | 5.91 nM | 284 nM |  |  | 
C[C@H]1NCCC[C@H]1Nc1cncc(-c2cnc3ccc(F)cn23)n1 [Example 94, 6-(6-fluoroimidazo[1,2-a]pyridin-3-yl)-N-[(2R,3R)-2-methylpiperidin-3-yl]pyrazin-2-amine] | 20.6 nM |  |  | 370 nM | 
